± gives the standard deviation of the averaged measurements.
Experiments:
Assay in all cases: level (log10 ratio to DMSO vehicle control); higher = higher biomarker level / cell amount than vehicle control
[1] = compound: FC(F)(I)C(F)(F)C(F)(F)C(F)(F)C(F)(F)C(F)(F)I [1,6-Diiodoperfluorohexane]; conditions: 6700 nM; in DMSO
Procedure: (§1)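 BioMAP Diversity Plus panel of 12 human primary cell co-culture systems (3C, 4H, LPS, SAg, BT, BF4T, BE3C, CASM3C, HDF3CGF, KF3CT, MyoF, Mphg). Compounds were added 1 h before stimulation and left for 24 h (MyoF 48 h; BT 72 h for soluble read-outs or 6 d for IgG). Biomarkers were read by ELISA, cytotoxicity by SRB, PBMC viability and proliferation by Alamar Blue. Each well value was divided by the mean of 8 DMSO control wells on the same plate and log10 transformed; duplicate blinded samples were tested at 4 concentrations.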

[2] = compound: OCCCC(F)(F)C(F)(F)C(F)(F)C(F)(F)C(F)(F)C(F)(F)C(F)(F)C(F)(F)F [3-(Perfluorooctyl)propanol]; conditions: 6700 nM; in DMSO
Procedure: as §1

[3] = compound: OCCCCC(F)(F)C(F)(F)C(F)(F)C(F)(F)F [4:4 Fluorotelomer alcohol]; conditions: in DMSO
Procedure: as §1

[4] = compound: OCC(F)(F)C(F)(F)C(F)(F)C(F)(F)C(F)(F)C(F)(F)C(F)(F)C(F)(F)C(F)(F)C(F)(F)C(F)(F)F [11:1 Fluorotelomer alcohol]; conditions: in DMSO
Procedure: as §1

[5] = compound: O=C(Cl)C(F)(F)C(F)(F)C(F)(F)C(=O)Cl [Hexafluoroglutaryl chloride]; conditions: in DMSO
Procedure: as §1

[6] = compound: O=C(CC(=O)C(F)(F)C(F)(F)C(F)(F)F)c1cccs1 [(Perfluorobutyryl)-2-thenoylmethane]; conditions: in DMSO
Procedure: as §1

[7] = compound: O=C(O)C(F)(F)C(F)(F)C(=O)O [Tetrafluorosuccinic acid]; conditions: in DMSO
Procedure: as §1

[8] = compound: C=CC(=O)OCC(F)(F)C(F)(F)C(F)(F)C(F)(F)COC(=O)C=C [1H,1H,6H,6H-Perfluorohexane-1,6-diol diacrylate]; conditions: 6700 nM; in DMSO
Procedure: as §1

[9] = compound: O=C(O)C(F)(F)C(F)(F)C(F)(F)C(F)(F)C(F)(F)C(F)(F)C(F)(F)F [Perfluorooctanoic acid]; conditions: in DMSO
Procedure: as §1

Row | Test System | level (log10) [1] | level (log10) [2] | level (log10) ([3]; 6700 nM) | level (log10) ([3]; 20000 nM) | level (log10) ([3]; 60000 nM) | level (log10) ([4]; 1100 nM) | level (log10) ([4]; 3300 nM) | level (log10) ([4]; 10000 nM) | level (log10) ([5]; 6700 nM) | level (log10) ([5]; 20000 nM) | level (log10) ([5]; 60000 nM) | level (log10) ([6]; 6700 nM) | level (log10) ([6]; 20000 nM) | level (log10) ([7]; 6700 nM) | level (log10) ([7]; 20000 nM) | level (log10) ([7]; 60000 nM) | level (log10) [8] | level (log10) ([9]; 6700 nM) | level (log10) ([9]; 20000 nM) | level (log10) ([9]; 60000 nM)
1 | HDF3CGF:Collagen I | 0.053 | 0.161 ± 0.077 | -0.0175 ± 0.067 | -0.0175 ± 0.071 | 0.031 ± 0.13 | 0.438 ± 0.0099 | 0.471 ± 0.03 | 0.394 ± 0.062 | -0.025 ± 0.023 | 0.002 | 0.0065 ± 0.028 | -0.0265 ± 0.04 | -0.185 ± 0.0071 | -0.0515 ± 0.025 | -0.0235 ± 0.018 | -0.0305 ± 0.029 | -0.013 ± 0.048 | -0.025 ± 0.0028 | 0.0005 ± 0.016 | 0.0395 ± 0.054
2 | KF3CT:PAI-I | -0.117 | -0.104 ± 0.077 | -0.012 ± 0.017 | -0.0075 ± 0.013 | -0.009 ± 0.013 | -0.002 ± 0.0071 | -0.0055 ± 0.012 | 0.001 ± 0.023 | -0.012 ± 0.028 | -0.0005 ± 0.0078 | -0.0055 ± 0.015 | -0.035 ± 0.0071 | -0.058 ± 0.013 | -0.0465 ± 0.037 | -0.0005 ± 0.0021 | 0 ± 0.0014 | 0.048 ± 0.0071 | 0.0005 ± 0.021 | -0.015 ± 0.02 | -0.079 ± 0.0028
3 | 3C:CD142/Tissue Factor | -0.001 | -0.054 ± 0.016 | -0.0215 ± 0.025 | -0.018 ± 0.042 | 0.0155 ± 0.0092 | 0.028 ± 0.024 | 0.074 ± 0.034 | 0.0865 ± 0.0092 | -0.04 ± 0.042 | -0.0435 ± 0.0092 | -0.07 ± 0.092 | -0.0775 ± 0.022 | -0.356 ± 0.057 | 0.001 ± 0.042 | 0.0025 ± 0.0064 | 0.006 ± 0.023 | -0.134 ± 0.04 | 0.0395 ± 0.057 | 0.0135 ± 0.071 | 0.049 ± 0.011
4 | HDF3CGF:EGFR | -0.044 | -0.31 ± 0.071 | -0.0155 ± 0.0035 | -0.0105 ± 0.0035 | 0.0195 ± 0.05 | 0.034 ± 0.024 | 0.044 ± 0.064 | 0.0275 ± 0.083 | -0.0195 ± 0.012 | -0.0115 ± 0.011 | -0.01 ± 0.057 | -0.101 ± 0.073 | -0.0595 ± 0.018 | -0.0065 ± 0.033 | -0.008 ± 0.0028 | 0.029 ± 0.038 | -0.0155 ± 0.0078 | -0.065 ± 0.086 | -0.086 ± 0.028 | -0.0965 ± 0.044
5 | MyoF:alpha-SM Actin | -0.486 | -0.0885 ± 0.061 | 0.025 ± 0.041 | 0.0195 ± 0.04 | 0.041 ± 0.055 | -0.0025 ± 0.015 | -0.0195 ± 0.03 | 0.0045 ± 0.018 | -0.0115 ± 0.018 | -0.0065 ± 0.057 | -0.0105 ± 0.035 | -0.0445 ± 0.042 | -0.0865 ± 0.059 | 0.0065 ± 0.025 | -0.0165 ± 0.015 | -0.0275 ± 0.037 | -0.157 ± 0.012 | 0.014 ± 0.02 | 0.0155 ± 0.047 | -0.0035 ± 0.032
6 | CASM3C:CD141/Thrombomodulin | 0.008 | 0.0455 ± 0.019 | -0.0065 ± 0.012 | -0.0065 ± 0.0078 | 0.0145 ± 0.032 | -0.0155 ± 0.012 | -0.012 ± 0.025 | -0.0155 ± 0.005 | -0.0055 ± 0.037 | -0.0135 ± 0.063 | -0.0125 ± 0.044 | 0.0115 ± 0.09 | -0.008 ± 0.1 | -0.0015 ± 0.012 | 0.013 ± 0.023 | -0.0265 ± 0.025 | 0.0295 ± 0.016 | 0.0125 ± 0.0092 | 0.007 ± 0.016 | -0.0115 ± 0.0064
7 | lMphg:CCL3/MIP-1alpha | -0.016 | -0.018 ± 0.0014 | -0.0205 ± 0.0035 | -0.041 ± 0.021 | -0.0365 ± 0.022 | 0.014 ± 0.011 | -0.0165 ± 0.026 | -0.06 ± 0.021 | 0.001 ± 0.069 | 0.012 ± 0.034 | 0.0145 ± 0.073 | 0.0225 ± 0.029 | 0.012 ± 0.057 | -0.0145 ± 0.025 | -0.0145 ± 0.00071 | -0.001 ± 0.023 | -0.0045 ± 0.07 | 0.039 ± 0.033 | 0.0295 ± 0.066 | -0.0365 ± 0.067

Source: the supplement of paper PMC10331698
